In data set [1] the test system is A549 human lung carcinoma cells. The experiment in a line: MTS cell viability assay, A549 lung carcinoma cells. The format is cell-based. The note with it: read-out: IC50 Values, Cancerous Cells, Lung A549. The method, then: (§1) Cell viability was determined by measuring the activity of dehydrogenase enzymes in metabolically active cells using a tetrazolium compound, MTS. The assay was performed as described in Promega Technical Bulletin No. 169 (CellTiter 96 Aqueous Non-Radioactive Cell Proliferation Assay): All cells lines were grown in DMEM media (4.5 g/L glucose) supplemented with 15% heat-inactivated FBS, 10 mM L-glutamine, and 10 mM HEPES. Briefly, cells were seeded in 96-well plates and incubated for 16 to 24 hours; test compounds were serially diluted in DMSO, further diluted in cell culture media, then added to cells (final DMSO concentration of 0.33% v/v); cells were incubated in the presence of compound for 4 hours; MTS was added to the cells and incubated for four hours; SDS was added to a final concentration of 1.4% v/v and absorbance at 490 nm was measured within two hours using a plate reader. The amount of […] absorbance was directly proportional to the number of living cells in the culture.
(§2) The assays of the present invention as shown in Table 1 and methods of measuring induction of E2F1 activity and elevation of E2F1 levels can be carried out following the descriptions found in Li et al., (2003) Proc Natl Acad Sci USA. 100(5): 2674-8 and U.S. Patent Application Publication No. 2002/0169135, both incorporated herein by reference.
Background: Tetrazolium dyes change colour on reduction, which living cells bring about.

The test system of data set [2] is DLD-1 human colon carcinoma cells. The data set can be described thus: MTS cell viability assay, DLD-1 colon carcinoma cells. The format is cell-based. The settings on record: read-out: IC50 Values, Cancerous Cells, Colon DLD-1. The method, then: as §1, §2
The subject of data set [3] is DU-145 human prostate carcinoma cells. The experiment in a line: MTS cell viability assay, DU-145 prostate carcinoma cells. The format is cell-based. The note with it: read-out: IC50 Values, Cancerous Cells, Prostate DU-145. As for the experimental part:
as §1, §2

In data set [4] the test system is K-562 human leukemia cells. The experiment in a line: MTS cell viability assay, K-562 leukemia cells. The format is cell-based. The note with it: read-out: IC50 Values, Cancerous Cells, Leukemia K-562. As for the experimental part:
as §1, §2

Data set [5] has as its system PACA-2 human pancreatic carcinoma cells. The data set can be described thus: MTS cell viability assay, PACA-2 pancreatic carcinoma cells. The format is cell-based. The note with it: read-out: IC50 Values, Cancerous Cells, Pancreas PACA-2. As for the experimental part: as §1, §2
Data set [6] deals with NCM-460 normal colon epithelial cells. The data set can be described thus: MTS cell viability assay, NCM-460 normal colon cells. The format is cell-based. The settings on record: for IC50: Homo sapiens, read-out: IC50 Values, Normal Cells, Colon NCM-460; for Fold Selectivity (NCM-460/DLD1): ratio of IC50 NCM-460 to IC50 DLD-1. As for the experimental part:
Since β-lapachone induces cell death only in cancer cell lines and not in normal cells (Li et al., (2003) Proc Natl Acad Sci USA. 100(5): 2674-8), the present compounds were also tested in a panel of normal cell lines from a variety of tissues including NCM-460 normal colon epithelial cells.
as §1, §2

Another data set has as its system human cancer cell lines. The note with it: single agent; typical range; read-out: antineoplastic activity against human cancer cell lines (IC50); cited from earlier work.
For data set [7], the system named is normal fresh or proliferating human PBMC. The settings on record: cited from earlier work.
In a further data set the test system is E2F1 checkpoint pathway. The settings on record: earlier studies with β-lapachone; cited from earlier work.
The mark [8] stands for this setting: A549, 4 hours with compound, MTS.
Where [9] appears, read: DLD-1, 4 hours with compound, MTS.
[10] abbreviates: DU-145, 4 hours with compound, MTS.
The mark [11] stands for this setting: K562, K-562, 4 hours with compound, MTS.
Where [12] appears, read: PACA-2, 4 hours with compound, MTS.
[13] abbreviates: NCM460, NCM-460, 4 hours with compound, MTS.

Where two headings read alike, the source gives them in different places.

The term melting point denotes the temperature, or range, at which the solid turns liquid. For orientation: IC50 means the concentration that gives 50% inhibition.

Turning to `O=C1C(=O)c2ccccc2C2=C1SCC(CN1CCC(O)CC1)O2` (stereo not shown) [Compound 3, 2-[(4-hydroxypiperidin-1-yl)methyl]-2,3-dihydronaphtho[1,2-b][1,4]oxathiine-5,6-dione], the melting point lay within 98 to 100 °C.

In the case of `O=C1C(=O)c2ccccc2C2=C1SCC(CN1CCC3(CC1)OCCO3)O2` (stereo not shown) [Compound 9, 2-(1,4-dioxa-8-azaspiro[4.5]dec-8-ylmethyl)-2,3-dihydronaphtho[1,2-b][1,4]oxathiine-5,6-dione], the melting point was in the range of 202 to 204 °C.

For `CCOC(=O)N1CCN(CC2CSC3=C(O2)c2ccccc2C(=O)C3=O)CC1` (stereo not shown) [Compound 1, ethyl 4-[(5,6-dioxo-2,3,5,6-tetrahydronaphtho[1,2-b][1,4]oxathiin-2-yl)methyl]piperazine-1-carboxylate], the IC50 in data set [1] (setting [8]) worked out at 4.77 µM; in [2] (setting [9]), 1.84 µM; in data set [3] (setting [10]), 4.01 µM; in [4] (setting [11]), 2.93 µM; in data set [5] (setting [12]), 1.95 µM; in [6] (setting [13]) it was 4.78 µM. Besides, the “Fold Selectivity (NCM-460/DLD1)” value in [6] stood at 2.6.

As to `O=C1C(=O)c2ccccc2C2=C1SCC(CN1CCC(CO)CC1)O2` (stereo not shown) [Compound 2, 2-{[4-(hydroxymethyl)piperidin-1-yl]methyl}-2,3-dihydronaphtho[1,2-b][1,4]oxathiine-5,6-dione], the IC50 in data set [1] (setting [8]) turned out to be 11.7 µM; in data set [2] (setting [9]), 2.05 µM; in data set [3] (setting [10]), 3.88 µM; in data set [4] (setting [11]) it was 2.84 µM; in data set [5] (setting [12]) it was 1.64 µM; in [6] (setting [13]), 10.8 µM. Further, the “Fold Selectivity (NCM-460/DLD1)” value in data set [6] was determined as 5.3.

For the compound `O=C(Nc1ccccc1)OCC1CSC2=C(O1)c1ccccc1C(=O)C2=O` (stereo not shown) [Compound 11, (5,6-dioxo-2,3,5,6-tetrahydronaphtho[1,2-b][1,4]oxathiin-2-yl)methyl phenylcarbamate], the IC50 amounted to 5.44 µM in [1] (setting [8]); 1.36 µM in [2] (setting [9]); 4.05 µM in data set [3] (setting [10]); 2.73 µM in data set [4] (setting [11]); 2.05 µM in [5] (setting [12]); 7.65 µM in data set [6] (setting [13]). The “Fold Selectivity (NCM-460/DLD1)” value in data set [6] turned out to be 5.6.

Turning to `CC1CSC2=C(O1)c1cc(N3CCCCC3)ccc1C(=O)C2=O` (stereo not shown) [Compound 15, 2-methyl-9-piperidin-1-yl-2,3-dihydronaphtho[1,2-b][1,4]oxathiine-5,6-dione], the IC50 was above 100 µM in [1] (setting [8]); 32.8 µM in [2] (setting [9]); above 100 µM in [3] (setting [10]); 58.2 µM in data set [4] (setting [11]); 32.4 µM in data set [5] (setting [12]); 33.6 µM in data set [6] (setting [13]). Moreover, the “Fold Selectivity (NCM-460/DLD1)” value in [6] was found to be 1.0.

`COC(=O)C1(C)CSC2=C(O1)c1ccccc1C(=O)C2=O` (stereo not shown) yielded a melting point of 188 to 189 °C.

In the case of `CC(C)NC(=O)OCC1CSC2=C(O1)c1ccccc1C(=O)C2=O` (stereo not shown) [Compound 12, (5,6-dioxo-2,3,5,6-tetrahydronaphtho[1,2-b][1,4]oxathiin-2-yl)methyl isopropylcarbamate], the half-maximal inhibitory concentration (IC50) in data set [1] (setting [8]) stood at 4.66 µM; in data set [2] (setting [9]), 2.17 µM; in [3] (setting [10]), 3.72 µM; in data set [4] (setting [11]), 1.51 µM; in data set [5] (setting [12]), 1.68 µM; in data set [6] (setting [13]), 5.92 µM. The “Fold Selectivity (NCM-460/DLD1)” value in data set [6] stood at 2.7.

For `COC(CN(C)CC1CSC2=C(O1)c1ccccc1C(=O)C2=O)OC` (stereo not shown) [Compound 4, 2-{[(2,2-dimethoxyethyl)(methyl)amino]methyl}-2,3-dihydronaphtho[1,2-b][1,4]oxathiine-5,6-dione], the melting point is 80 to 82 °C.

Regarding `CC(C)NC(=O)CN1CCN(CC2CSC3=C(O2)c2ccccc2C(=O)C3=O)CC1` (stereo not shown) [Compound 8, 2-{4-[(5,6-dioxo-2,3,5,6-tetrahydronaphtho[1,2-b][1,4]oxathiin-2-yl)methyl]piperazin-1-yl}-N-isopropylacetamide], the melting point fell in the range of 85 to 87 °C.

On to `O=C1C(=O)c2ccccc2C2=C1SCC(CNCc1ccccc1)O2` (stereo not shown) [Compound 7, 2-[(benzylamino)methyl]-2,3-dihydronaphtho[1,2-b][1,4]oxathiine-5,6-dione], for which the IC50 in data set [1] (setting [8]) was 11.3 µM; in [2] (setting [9]) it was 2.95 µM; in data set [3] (setting [10]), 4.22 µM; in data set [4] (setting [11]), 3.89 µM; in data set [5] (setting [12]), 2.75 µM; in data set [6] (setting [13]), 11.4 µM. For the same compound, in data set [6], the “Fold Selectivity (NCM-460/DLD1)” value was 3.9.

`CCCC1CCOC2=C(S1)C(=O)C(=O)c1ccccc12` (stereo not shown) [Compound 13, 4-propyl-3,4-dihydro-2H-naphtho[1,2-b][1,4]oxathiepine-6,7-dione]: the IC50 in data set [1] (A549, 4 h) was above 100 µM; in data set [2] (DLD-1, 4 h) it was 12.9 µM; in [3] (DU-145, 4 h) it was 13.2 µM; in data set [4] (K562, 4 h) it was 10.9 µM; in data set [5] (PaCa-2, 4 h), 12.1 µM; in [6] (NCM460, 4 h) it was 18.6 µM. Also, in [6], the “Fold Selectivity (NCM-460/DLD1)” value was found to be 1.4.

Take `O=C1C(=O)c2ccccc2C2=C1SCC(CN1CCN(c3ccc(F)cc3)CC1)O2` (stereo not shown) [Compound 5, -{[4-(4-fluorophenyl)piperazin-1-yl]methyl}-2,3-dihydronaphtho[1,2-b][1,4]oxathiine-5,6-dione]: the IC50 in data set [1] (setting [8]) was found to be 4.79 µM; in [2] (setting [9]), 1.57 µM; in [3] (setting [10]) it was 1.49 µM; in data set [4] (setting [11]), 2.68 µM; in [5] (setting [12]), 1.34 µM; in data set [6] (setting [13]) it was 9.83 µM. Besides, the “Fold Selectivity (NCM-460/DLD1)” value in data set [6] was 6.3.

As for `O=C1C(=O)c2ccccc2C2=C1SCC(CNCCc1ccccc1)O2` (stereo not shown) [Compound 6, 2-{[(2-phenylethyl)amino]methyl}-2,3-dihydronaphtho[1,2-b][1,4]oxathiine-5,6-dione], the IC50 in data set [1] (setting [8]) is 12.9 µM; in data set [2] (setting [9]), 4.01 µM; in data set [3] (setting [10]) it was 4.67 µM; in [4] (setting [11]), 5.29 µM; in data set [5] (setting [12]) it was 3.78 µM; in [6] (setting [13]) it was 17.1 µM. For the same compound, the “Fold Selectivity (NCM-460/DLD1)” value in data set [6] turned out to be 4.3.

Turning to `CC1(C)CCC2=C(O1)c1ccccc1C(=O)C2=O` [β-lapachone, 3,4-dihydro-2,2-dimethyl-2H-naphtho[1,2-b]pyran-5,6-dione], in the data set with human cancer cell lines, the IC50 is 1 to 10 µM. Further, in data set [7], the “cytotoxic effects on normal human PBMC” value is listed as “No cytotoxic effects”. Also, the “activation of E2F1 checkpoint pathway in nuclei of cancer cells but not in normal cells” value in the data set with E2F1 checkpoint pathway is “induces activation of E2F1 checkpoint pathway”.

Turning to `O=C1C(=O)c2ccccc2C2=C1SCC(COc1cccnc1)O2` (stereo not shown) [Compound 17, 2-[(pyridin-3-yloxy)methyl]-2,3-dihydronaphtho[1,2-b][1,4]oxathiine-5,6-dione], the IC50 came out at 5.08 µM in [1] (setting [8]); 2.39 µM in [2] (setting [9]); 3.82 µM in [3] (setting [10]); 2.89 µM in data set [4] (setting [11]); 2.04 µM in [5] (setting [12]); 5.61 µM in data set [6] (setting [13]). Besides, the “Fold Selectivity (NCM-460/DLD1)” value in data set [6] turned out to be 2.3.

On to `CC1CSC2=C(O1)c1cc(-c3ccccc3)ccc1C(=O)C2=O` (stereo not shown) [Compound 14, 2-methyl-9-phenyl-2,3-dihydronaphtho[1,2-b][1,4]oxathiine-5,6-dione], for which the IC50 in data set [1] (setting [8]) was above 100 µM; in data set [2] (setting [9]), 3.8 µM; in data set [3] (setting [10]), 3.79 µM; in [4] (setting [11]), 4.61 µM; in [5] (setting [12]), 3.39 µM; in data set [6] (setting [13]), 10.1 µM. Besides, the “Fold Selectivity (NCM-460/DLD1)” value in data set [6] was determined as 2.7.

Values taken from patent publication US8067459B2, “Lapachone compounds and methods of use thereof” (ArQule, Inc., priority 2007, dated 2011).
